Laboratory results as given in US12065648B2, “Methods and compositions for inhibiting detoxification response” (priority 2015, dated 2024).

Legend:
pgp-5::gfp [1] = experiment: pgp-5::gfp induction in germline translation-defective eft-3(q145);pgp-5::gfp strain (RNAi, bile acid rescue, microbes); format: in vivo, C. elegans; conditions: bile acids at 100 uM
Excerpt: Secondary screens were similarly done on the eft-3(q145):pgp-5::gfp strain.
To explore the types of lipids that the dhs-28. daf-22 pathway generates to regulate the induction of pgp-5::gfp expression in translation-defective animals, we tested whether defects in CAs-28 or daf-22-mediated lipid/bile acid biosynthesis could be rescued for pgp-5::gfp induction by addition of purified mammalian bile acids (FIG. 9B). […] These bile acids preparations are 95% pure.

C. elegans [2] = experiment: Effect of microbes on C. elegans growth; format: in vivo; conditions: C. elegans grown on the microbe
Experimental: 16S ribosomal sequence was amplified using specific primers and sequenced to identify the microbes. BHI media as well as plates was used for culturing and testing the effect of Enterococcus faecalis and E. faecium on worms. For Saccharomyces boulardi, YPD media was used for growing the yeast and a concentrated culture was added to SK media. For Lactobacillus spp, Lactobacilli broth was used for growing and then a concentrated culture was added to SK media. SK media was used for all the other microbes.
Many of the bacterial strains allowed normal growth of C. elegans, but some caused developmental arrest, perhaps due to toxins or virulence factors that disrupt essential C. elegans processes.

[3] = system: ugt-61 transcriptional GFP fusion gene; experiment: Transcriptional GFP fusion gene induction: ugt-61; format: in vivo, C. elegans; conditions: n = 20
Experimental: (§1) G418 (GoldBio) or hygromycin (GoldBio) was diluted in M9 to the desired concentration and added onto preseeded OP50 E. coli bacteria containing NGM plates. The plates were dried uncovered in the hood for at least 1 hour before seeding the worms. For the drug experiments, synchronized L1-stage animals were dropped onto the drug containing plates and scored later. For drug resistance assays synchronized L1 larval stage animals of the appropriate genotype were fed with either control RNAi or with RNAi clones targeting bile acid biosynthetic pathways until they reach day two of adulthood. Subsequently, the RNAi-treated animals were egg-prepped to obtain synchronized L1 larvae. ˜100 L1 larvae were added to the plates containing G418. 100 nM of Δ^4-Dafachronic Acid or (25S)-Δ^7-Dafachronic Acid from Cayman Chemical were used.
(§2) Nematodes were mounted onto agar pads and images were taken using a Zeiss AXIO Imager Z1 microscope fitted with a Zeiss AxioCam HRm camera and Axiovision 4.6 (Zeiss) software. Fluorescent images were converted to 16-bit images, thresholded and quantified using ImageJ. Student's t test was used determine statistical significance. […]

[4] = system: pgp-6 transcriptional GFP fusion gene; experiment: Transcriptional GFP fusion gene induction: pgp-6; format: in vivo, C. elegans; conditions: n = 20
Experimental: as §1, §2

[5] = system: pgp-3 transcriptional GFP fusion gene; experiment: Transcriptional GFP fusion gene induction: pgp-3; format: in vivo, C. elegans; conditions: n = 20
Experimental: as §1, §2

[6] = system: dhs-9 transcriptional GFP fusion gene; experiment: Transcriptional GFP fusion gene induction: dhs-9; format: in vivo, C. elegans; conditions: n = 20
Experimental: as §1, §2

[7] = system: pgp-4 transcriptional GFP fusion gene; experiment: Transcriptional GFP fusion gene induction: pgp-4; format: in vivo, C. elegans; conditions: n = 20
[8] = system: dhs-19 transcriptional GFP fusion gene; experiment: Transcriptional GFP fusion gene induction: dhs-19; format: in vivo, C. elegans; conditions: n = 20
Experimental: as §1, §2

pgp-5::gfp [9] = experiment: pgp-5::gfp induction in animals without germline translation mutation (toxin, RNAi, bile acids, lipid extracts); format: in vivo, C. elegans; conditions: pgp-5 transcriptional GFP fusion gene; n = 20
Experimental: as §1
Nematodes were mounted onto agar pads and images were taken using a Zeiss AXIO Imager Z1 microscope fitted with a Zeiss AxioCam HRm camera and Axiovision 4.6 (Zeiss) software. Fluorescent images were converted to 16-bit images, thresholded and quantified using ImageJ. […]
RNAi bacteria expressing the dsRNA corresponding to each worm gene were grown in LB media with 25 μg/ml carbenicillin overnight and seeded onto RNAi agar plates containing 1 mM IPTG. […] In the primary screen, the plates were screened visually for changes in GFP fluorescence and worm developmental defects. […]

[10] = system: pgp-9 transcriptional GFP fusion gene; experiment: Transcriptional GFP fusion gene induction: pgp-9; format: in vivo, C. elegans; conditions: n = 20
Experimental: as §1, §2

C. elegans [11] = experiment: Drug resistance assay (G418 or hygromycin) after RNAi; format: in vivo; conditions: control RNAi treated wildtype animals; 0.2 mg/ml G418
Experimental: as §1

[12] = system: abch-1 transcriptional GFP fusion gene; experiment: Transcriptional GFP fusion gene induction: abch-1; format: in vivo, C. elegans; conditions: n = 20
Experimental: as §1, §2

[13] = system: ugt-8 transcriptional GFP fusion gene; experiment: Transcriptional GFP fusion gene induction: ugt-8; format: in vivo, C. elegans; conditions: n = 20
Experimental: as §1, §2

[14] = system: ugt-58 transcriptional GFP fusion gene; experiment: Transcriptional GFP fusion gene induction: ugt-58; format: in vivo, C. elegans; conditions: n = 20
Experimental: as §1, §2

[15] = system: pmp-4 transcriptional GFP fusion gene; experiment: Transcriptional GFP fusion gene induction: pmp-4; format: in vivo, C. elegans; conditions: n = 20
[16] = system: mrp-2 transcriptional GFP fusion gene; experiment: Transcriptional GFP fusion gene induction: mrp-2; format: in vivo, C. elegans; conditions: n = 20
Experimental: as §1, §2

[17] = system: ugt-22 transcriptional GFP fusion gene; experiment: Transcriptional GFP fusion gene induction: ugt-22; format: in vivo, C. elegans; conditions: n = 20
Experimental: as §1, §2

[18] = system: haf-7 transcriptional GFP fusion gene; experiment: Transcriptional GFP fusion gene induction: haf-7; format: in vivo, C. elegans; conditions: n = 20
Experimental: as §1, §2

[19] = system: cyp-25a2 transcriptional GFP fusion gene; format: in vivo, C. elegans; conditions: n = 20
Experimental: as §1
(§3) Nematodes were mounted onto agar pads and images were taken using a Zeiss AXIO Imager Z1 microscope fitted with a Zeiss AxioCam HRm camera and Axiovision 4.6 (Zeiss) software. Fluorescent images were converted to 16-bit images, thresholded and quantified using ImageJ. Student's t test was used determine statistical significance.
(§4) Inactivation of C. elegans translation components by feeding the animals E. coli expressing specific dsRNAs targeting translation factor mRNAs induces the expression of xenobiotic detoxification genes, bacterial pathogen response genes, and aversion behavior2-4 (FIG. 1A-C; Table 1, 2 and 3). Toxins, such as the eukaryotic translation inhibitors G418 produced by the bacteria Micromonospora rhodorangea5 or hygromycin, produced by the soil bacteria Streptomyces hygroscopicus6 also induce these responses.
(§5) Detoxification responses in animals include, cytochrome P450's (CYPs), UDP-glucuronosyltransferases (UGTs), glutathione S-transferases (GSTs), and p-glycoprotein transporters (PGPs) (FIGS. 1A & 1C; FIG. 6 A-B; Table 1, 2 and 3). We chose a pgp-5::gfp fusion gene for assays of xenobiotic detoxification induction in response to G418 or hygromycin or ribosomal assaults via RNAi (FIGS. 1A & C; FIG. 6 A-B; Table 1, 2 and 3) because of the robust response of this reporter gene and validation of this gene induction from microarray gene expression analysis in response to translational inhibition by toxins or RNAi4.

[20] = system: cyp-13a7 transcriptional GFP fusion gene; format: in vivo, C. elegans; conditions: n = 20
Experimental: as §1, §3, §4, §5

[21] = system: cyp-34A9 transcriptional GFP fusion gene; format: in vivo, C. elegans; conditions: n = 20
Experimental: as §1, §3, §4, §5

[22] = system: cyp-14A3 transcriptional GFP fusion gene; format: in vivo, C. elegans; conditions: n = 20
Experimental: as §1, §3, §4, §5

[23] = system: cyp-31a3 transcriptional GFP fusion gene; format: in vivo, C. elegans; conditions: n = 20
Experimental: as §1, §3, §4, §5

[24] = system: cyp-35B1 transcriptional GFP fusion gene; format: in vivo, C. elegans; conditions: n = 20
Experimental: as §1, §3, §4, §5

[25] = system: cyp-37A1 transcriptional GFP fusion gene; format: in vivo, C. elegans; conditions: n = 20
Experimental: as §1, §3, §4, §5

Compound: C[C@H](CCC(=O)O)[C@H]1CC[C@H]2[C@@H]3[C@H](O)C[C@@H]4C[C@H](O)CC[C@]4(C)[C@H]3CC[C@]12C [chenodeoxycholic acid]
- rescue of the defect in pgp-5::gfp induction caused by daf-22 or dhs-28 gene inactivations (pgp-5::gfp [1]): rescued the defect in induction of pgp-5::gfp

Compound: CC(CCC(=O)NCC(=O)O)C1CCC2C3C(O)CC4CC(O)CCC4(C)C3CCC12C (stereo not drawn) [glycochenodeoxycholic acid]
- rescue of the defect in pgp-5::gfp induction caused by daf-22 or dhs-28 gene inactivations (pgp-5::gfp [1]): rescued the defect in induction of pgp-5::gfp

Compound: Lactobacillus plantarum
- % Animals that reach adulthood (C. elegans [2]): 0%
- developmental outcome on the microbe (arrest stage, slow growth, normal) (C. elegans [2]): slow growth

Compound: CN[C@@H]1[C@@H](O)[C@@H](O[C@@H]2[C@@H](O)[C@H](O[C@H]3O[C@H]([C@@H](C)O)[C@@H](O)[C@H](O)[C@H]3N)[C@@H](N)C[C@H]2N)OC[C@]1(C)O [G418]
- % Animals with gfp induction [3]: 0 (n = 20) %
- % Animals with gfp induction [4]: 100 (n = 20) %
- % Animals with gfp induction [5]: 0 (n = 20) %
- % Animals with gfp induction [6]: 0 (n = 20) %
- % Animals with gfp induction [7]: 0 (n = 20) %
- % Animals with gfp induction [8]: 0 (n = 20) %
- % Animals with gfp induction (pgp-5::gfp [9]): 100 (n = 20) %
- % Animals with gfp induction [10]: 100 (n = 20) %
- animals that grew to adulthood (C. elegans [11]): > 40%
- % Animals with gfp induction [12]: 0 (n = 20) %
- % Animals with gfp induction [13]: 0 (n = 20) %
- % Animals with gfp induction [14]: 0 (n = 20) %
- % Animals with gfp induction [15]: 65 (n = 20) %
- % Animals with gfp induction [16]: 80 (n = 20) %
- % Animals with gfp induction [17]: 0 (n = 20) %
- % Animals with gfp induction [18]: 0 (n = 20) %
- % Animals with gfp induction [19]: 0 (n = 20) %
- % Animals with gfp induction [20]: 0 (n = 20) %
- % Animals with gfp induction [21]: 0 (n = 20) %
- % Animals with gfp induction [22]: 0 (n = 20) %
- % Animals with gfp induction [23]: 80 (n = 20) %
- % Animals with gfp induction [24]: 0 (n = 20) %
- % Animals with gfp induction [25]: 0 (n = 20) %
